Measurements from patent US8778966B2, “Quinolinone derivatives as PARP and tank inhibitors” (Janssen Pharmaceutica, NV, priority 2007, dated 2014).

Assays:
tubulin = assay: Tubulin polymerization assay; format: biochemical; design: key: a compound showing 0 to 50% inhibition at 20 μM is reported as score 1; Score 2 compounds are defined as compound showing more than 50% inhibition at 20 μM and less than 50% inhibition at 5 μM; a compound showing more than 50% inhibition at 5 μM is reported as score 3; conditions: tested at 20 μM and 5 μM
Method: The tubulin polymerization assay is an adaptation of an assay originally described by Bonne, D. et al. (J. Biol. Chem., 1985, 260:2819-25). The assay kit was purchased from Cytoskeleton, Inc. (catalogue number BK011) and the assay was performed as described by the supplier with the following modifications. The assay was run in a 384-well black Proxiplate (Perkin Elmer) and volumes were adapted accordingly. The reactions were carried out in a final volume of 10 μl. Compounds were added to 25 μl of the reaction mix in 96-well PP plates (Corning) on ice and 10 μl of this mixture was dispensed into duplicates of the 384-well Proxiplates pre-warmed to 37° C. in a Fluoroskan Ascent plate reader (Thermo Scientific). Fluorescence measurements were taken every minute for one hour. The maximum slope of each well was determined (linear regression through 4 consecutive points) and polymerization was calculated as a percentage of polymerization observed in the absence of compound. Compounds were first measured at a concentration of 20 μM and then at 5 μM for those showing more than 50% inhibition at 20 μM as compared to the polymerization observed in the absence of compound. Results are reported in Table F-2 as scores defined as: a compound showing 0 to 50% inhibition at 20 μM is reported as score 1; a compound showing more than 50% inhibition at 5 μM is reported as score 3.

Row | SMILES | melting point [°C] | tubulin polymerisation score (tubulin)
1 | CCc1cc2ccc(C(C)(C#N)Cc3nc(C#N)cc(OC)n3)cc2[nH]c1=O (single isomer, unassigned) [Compound 204] | 180 | –
2 | CCc1cc2c(OC)cc(C(C)(C#N)Cc3nc(OC)cc(OC)n3)cc2[nH]c1=O (single isomer, unassigned) [Compound 230] | – | 1 (a compound showing 0 to 50% inhibition at 20 μM is reported as score 1)
3 | CCc1cc2ccc([C@@](C)(C#N)CCOc3ccc(C#N)cc3)cc2[nH]c1=O (single isomer, unassigned) [Compound 273] | – | 2
4 | CCc1cc2ccc([C@](C)(C#N)Cc3cccc(/C=C/S(C)(=O)=O)c3)cc2[nH]c1=O (single isomer, unassigned) [Compound 291] | – | 2
5 | CCc1cc2ccc([C@@](C)(C#N)Cc3cccc(C#CCO)c3)cc2[nH]c1=O (single isomer, unassigned) [Compound 295] | – | 1 (a compound showing 0 to 50% inhibition at 20 μM is reported as score 1)
6 | CCc1cc2ccc([C@](C)(C#N)Cc3cccc(C#CCO)c3)cc2[nH]c1=O (single isomer, unassigned) [Compound 296] | – | 2
7 | CCc1cc2ccc([C@@](C)(C#N)Cc3cc(OC)nc(C)n3)cc2[nH]c1=O (single isomer, unassigned) [Compound 361] | – | 1 (a compound showing 0 to 50% inhibition at 20 μM is reported as score 1)
8 | CCc1cc2ccc([C@](C)(C#N)Cc3cc(OC)nc(C)n3)cc2[nH]c1=O (single isomer, unassigned) [Compound 362] | – | 2
9 | Cc1cc2ccc([C@](C)(C#N)C3CCc4ccccc43)cc2[nH]c1=O (single isomer, unassigned) [Compound 386] | – | 2
10 | CCc1cc2ccc(C(C)(C#N)Cc3cccc(OCCCN4CCNCC4)c3)cc2[nH]c1=O (stereo not drawn) [Compound 25] | 50 | –
11 | CCc1cc2ccc(C(C#N)(Cc3ccccc3)c3ccc(C#N)cc3)cc2[nH]c1=O (stereo not drawn) [Compound 26] | 255 | –
12 | CCc1cc2ccc(C(C#N)(Cc3ccccc3)c3ccccc3)cc2[nH]c1=O (stereo not drawn) [Compound 27] | 229 | –
13 | CCc1cc2ccc(C(C#N)(Cc3ccccc3)C3CC3)cc2[nH]c1=O (stereo not drawn) [Compound 29] | 186 | –
14 | CCc1cc2ccc(C(C#N)(Cc3ccccc3)C(C)C)cc2[nH]c1=O (stereo not drawn) [Compound 30] | 234 | –
15 | CCCC(C#N)(Cc1ccccc1)c1ccc2cc(CC)c(=O)[nH]c2c1 (stereo not drawn) [Compound 31] | 210 | –
16 | CCc1cc2ccc(C(C)(C#N)Cc3cc(OC)ccc3F)cc2[nH]c1=O (stereo not drawn) [Compound 171] | 160 | –
17 | CCc1cc2ccc(C(C)(C#N)Cc3cccc(-c4ccc[nH]4)c3)cc2[nH]c1=O (stereo not drawn) [Compound 176] | 194 | –
18 | CCc1cc2ccc(C(C)(C#N)Cc3cccc(CCS(C)(=O)=O)c3)cc2[nH]c1=O (stereo not drawn) [Compound 178] | 150 | –
19 | CCc1cc2ccc(C(C)(C#N)Cc3cccc(/C=N/OC)c3)cc2[nH]c1=O (stereo not drawn) [Compound 185] | 170 | –
20 | CCc1cc2ccc(C(C)(C#N)Cc3cccc(OCCCC#N)c3)cc2[nH]c1=O (stereo not drawn) [Compound 194] | 148 | 2
21 | CCc1cc2ccc(C(C)(C#N)Cc3cccc(OCCC#N)c3)cc2[nH]c1=O (stereo not drawn) [Compound 195] | 161 | 1 (a compound showing 0 to 50% inhibition at 20 μM is reported as score 1)
22 | C#CCOc1cccc(CC(C)(C#N)c2ccc3cc(CC)c(=O)[nH]c3c2)c1 (stereo not drawn) [Compound 196] | 141 | 2
23 | CCc1cc2ccc(C(C)(C#N)Cc3cccc(OCCS(C)(=O)=O)c3)cc2[nH]c1=O (stereo not drawn) [Compound 201] | 55 | –
24 | CCc1cc2ccc(C(C)(C#N)Cc3nc(Cl)cc(OC)n3)cc2[nH]c1=O (stereo not drawn) [Compound 202] | 162 | 2
25 | CCc1cc2ccc(C(C)(C#N)Cc3nc(N(C)C)cc(N(C)C)n3)cc2[nH]c1=O (stereo not drawn) [Compound 205] | 194 | –

Row | SMILES | melting point [°C] | tubulin polymerisation score (tubulin)
26 | CCc1cc2ccc(C(C)(C#N)Cc3cccc(N4CCC(N(C)C)C4)n3)cc2[nH]c1=O (stereo not drawn) [Compound 209] | 154 | –
27 | CCc1cc2ccc(C(C)(C#N)Cc3cccc(C#Cc4cncn4C)n3)cc2[nH]c1=O (stereo not drawn) [Compound 217] | 111 | –
28 | CCc1cc2ccc(C(C)(C#N)Cc3cccc(N(C)CCc4ccccc4)n3)cc2[nH]c1=O.Cl (stereo not drawn) [Compound 220] | 99 | –
29 | CCc1cc2ccc(C(C)(C#N)Cc3cccc(C#N)[n+]3[O-])cc2[nH]c1=O (stereo not drawn) [Compound 228] | 121 | –
30 | CCc1cc2c(OC)cc(C(C)(C#N)Cc3nc(OC)cc(OC)n3)cc2[nH]c1=O (stereo not drawn) [Compound 229] | 180 | –
31 | CCc1cc2ccc(C(C)(C#N)CN3CCN(c4ccccn4)CC3)cc2[nH]c1=O (stereo not drawn) [Compound 233] | 209 | 1 (a compound showing 0 to 50% inhibition at 20 μM is reported as score 1)
32 | Cc1nc(-c2ccccc2)sc1CC(C)(C#N)c1ccc2cc(C)c(=O)[nH]c2c1 (stereo not drawn) [Compound 235] | – | 1 (a compound showing 0 to 50% inhibition at 20 μM is reported as score 1)
33 | CCc1cc2ccc(C(C)(C#N)Cc3cccc4c3CCN4)cc2[nH]c1=O (stereo not drawn) [Compound 237] | 210 to 211 | –
34 | CCc1cc2ccc(C(C)(C#N)Cc3cccc(C(=O)OC(C)C)c3)cc2[nH]c1=O (stereo not drawn) [Compound 255] | – | 2
35 | CCc1cc2ccc(C(C)(C#N)Cc3cc(Br)cc(N(C)C)c3)cc2[nH]c1=O (stereo not drawn) [Compound 260] | – | 2
36 | CCOc1cccc(CC(C)(C#N)c2ccc3cc(CC)c(=O)[nH]c3c2)c1 (stereo not drawn) [Compound 285] | – | 2
37 | CCc1cc2ccc(C(C)(C#N)Cc3cc(OC)c(OC)c(OC)c3)cc2[nH]c1=O (stereo not drawn) [Compound 289] | – | 2
38 | CCc1cc2ccc(C(C)(C#N)CN(C)Cc3ccc(C#N)cc3)cc2[nH]c1=O (stereo not drawn) [Compound 300] | – | 1 (a compound showing 0 to 50% inhibition at 20 μM is reported as score 1)
39 | CCc1cc2ccc(C(C)(C#N)Cc3nc(C#N)cc(OC)n3)cc2[nH]c1=O (stereo not drawn) [Compound 313] | – | 2
40 | CCc1cc2ccc(C(C)(C#N)Cc3cc(C#N)nc(OC)c3)cc2[nH]c1=O (stereo not drawn) [Compound 314] | – | 1 (a compound showing 0 to 50% inhibition at 20 μM is reported as score 1)
41 | CCc1cc2ccc(C(C)(C#N)Cc3nc(C#N)cc(N(C)C)n3)cc2[nH]c1=O (stereo not drawn) [Compound 318] | – | 1 (a compound showing 0 to 50% inhibition at 20 μM is reported as score 1)
42 | CCc1cc2ccc(C(C)(C#N)Cc3cc(C#N)nc(C)n3)cc2[nH]c1=O (stereo not drawn) [Compound 319] | – | 2
43 | CCc1cc2ccc(C(C)(C#N)Cc3cc(Cl)nc(N(C)C)c3)cc2[nH]c1=O (stereo not drawn) [Compound 323] | – | 2
44 | CCc1cc2ccc(C(C)(C#N)Cc3cccc(NC)n3)cc2[nH]c1=O (stereo not drawn) [Compound 339] | – | 2
45 | CCc1cc2ccc(C(C)(C#N)Cc3cc(OC)nc(OC)c3)cc2[nH]c1=O (stereo not drawn) [Compound 350] | – | 2
46 | CCc1cc2ccc(C(C)(C#N)Cc3nc(OC)cc(N(C)C)n3)cc2[nH]c1=O (stereo not drawn) [Compound 355] | – | 2
47 | CCc1cc2ccc(C(C)(C#N)CN3CCC(c4ccccc4)CC3)cc2[nH]c1=O (stereo not drawn) [Compound 375] | – | 1 (a compound showing 0 to 50% inhibition at 20 μM is reported as score 1)
48 | CCc1cc2ccc(C(C)(C#N)CN3CCN(c4ccc(C#N)cn4)CC3)cc2[nH]c1=O (stereo not drawn) [Compound 377] | – | 1 (a compound showing 0 to 50% inhibition at 20 μM is reported as score 1)
49 | CCc1cc2ccc(C(C)(C#N)Cc3cccc4[nH]ccc34)cc2[nH]c1=O (stereo not drawn) [Compound 379] | – | 2
